Experimental findings from patent US20200237670A1, “DYE-STABILIZED NANOPARTICLES AND METHODS OF THEIR MANUFACTURE AND THERAPEUTIC USE” (Memorial Sloan Kettering Cancer Center, priority 2015, published 2020) are described below.

Data set [1] is described as follows: Nanoparticle formation with indocyanine IR783 by nano-precipitation (DLS / visual precipitation).
In data set [2] the test system is MYC-driven autochthonous murine hepatic tumor. The experiment in a line: MYC/β-catenin driven liver tumor model: anti-tumor efficacy. Type of data set: in vivo, FVB mice. The note with it: 30 mg/kg sorafenib p.o. or as INP i.v., weekly for three weeks; endpoint about day 60. How it is done:
For example, here 20 FVB mice were administered a hydrodynamic injection on day 0 with plasmids to C-Myc and beta-catenin to initiate liver tumors. The efficacy of IR783-SFB was compared to oral SFB. Treatments started at day 21 after inoculation and were administrated once weekly for 3 weeks.
To test the therapeutic potential of the INPs in vivo, the anti-tumor efficacy of equivalent drug doses in the liver cancer mouse model described above were either delivered intravenously via INPs or the orally administered free drug. Sorafenib or sorafenib INPs were injected weekly over the course of three weeks. […] Furthermore, quantitative measures of liver weight, tumor volume, and GFP emission confirmed virtually complete tumor eradication in INP-treated livers (FIGS. 12D-12F).
Hydrodynamic transfection was performed. Specifically, 10 μg pT3-EF1a-c-myc, 10 μg pT3-EF1a-β-CateninT41A-IRES-GFP and CMV-SB13 Sleeping Beauty transposase (1:5 ratio) were mixed in sterile saline solution. A total volume of plasmid-saline solution mix corresponding to 10% of the body weight was injected into the lateral tail vein of 6- to 8-week old female FVB/N mice (Jackson Laboratory, Me., USA) within 5-7 seconds. […] Tumors were evaluated using fluorescence imaging (IVIS imaging system, Xenogen Corp., Hopkinton, Mass.) and immunohistochemistry (H&E). Tumor volume was measured using a caliper.

The test system of data set [3] is BAEC, bEnd3, SB2, 3T3, BMDM and RAW264 cells. The data set is described as follows: In vitro uptake of IR783-SFB nanoparticles (fluorescence microscopy). Type of data set: cell-based. The note with it: 2 h, 30 μg/ml particles or equivalent free dye. As to the method: Bone marrow derived macrophages (BMDM), RAW264 macrophages, and 3T3 fibroblasts did take up the nanoparticles efficiently. […] FIG. 4B depicts quantitative analysis of fluorescence intensity in the cell lines was conducted using ImageJ v1.40 (NIH, USA). The mean fluorescence intensities are expressed in arbitrary units per square micron. The increased uptake by endothelial cells and cancer cells as opposed to macrophages and fibroblasts is about 4 fold. FIG. 4C depicts confirmation of the differential uptake between cell lines, 3T3 fibroblasts (GFP) were co-cultured with SB2 liver cancer cells (RFP) to confluence and incubated with nanoparticles for 30 min. The cell morphology of the co-culture can be seen in bright light (upper left, DIC) and fluorescence channel (upper right).
The uptake of the sorafenib-IR783 nanoparticles (IR783-SFB) was tested in 6 cell types: endothelial cells (BAEC and bEnd3 cell line), liver HCC cells (SB2 cells, derived from the in vivo model), fibroblasts (3T3), and macrophages (BMDM and RAW264). The cells were incubated for 2 hours with 30 μg/ml and as a control with an equivalent amount of free IR783. The cells were washed and stained with Cell Mask (Life Sciences) for membrane staining and DAPI for nuclear staining. The cells were imaged with a florescence microscope equipped with an Indocyanine Green filter set, as depicted in FIGS. 4A-4B.

Data set [4] has as its system endothelial cells; 3T3-GFP / SB2 co-culture. The data set is described as follows: Photodynamic therapy in cell culture (NIR irradiation). Type of data set: cell-based. The note with it: 30 min incubation, 1 min xenon lamp, imaged after 24 h. As to the method: The IR783-SFB nanoparticles were tested for the application of photodynamic therapy. The […] properties of the dyes may provide an added therapeutic benefit of the targeted nanoparticles. Endothelial and cancer cells were incubated with the nanoparticles for 30 min and then washed and exposed to NIR light from a Xenon lamp for 1 min. […] FIG. 8A depicts endothelial cells that were incubated for 30 min with NP and irradiated for 1 min with a xenon lamp (Xcite) using an ICG filter set (Chroma). […] After 24 h, the morphology of the irradiated area was altered and cells detached after washing (upper right).

The test system of data set [5] is MYC-driven autochthonous murine hepatic tumor. The data set is described as follows: MYC/β-catenin driven liver tumor model: targeting and biodistribution. Type of data set: in vivo, FVB mice. Conditions: near-IR fluorescence of livers 24 h after i.v. injection, sodium salt. As to the method:
Sorafenib-containing nanoparticles were tested in vivo for imaging and treatment of hepatocellular carcinoma in an orthotopic model. FVB mice were transfected by hydrodynamic injection on day 0 with plasmids to C-Myc and beta-catenin to inoculate liver tumors. FIG. 5A depicts mice bearing liver tumors and healthy mice were injected with IR783-SFB (for example, at 20 mg/kg) at day 21 after inoculation. After 24 hours the livers were extracted and imaged using an IVIS Preclinical In Vivo Imaging System (Perkin Elmer) in fluorescence imaging mode. […] The tumors were also imaged by their GFP expression (right panel). […] The GFP expression in the tumors was also imaged (right panel).
Next, the biodistribution of INPs in a MYC-driven murine hepatic tumor model was evaluated. To generate autochthonous liver tumors, Sleeping Beauty transposon vectors encoding c-Myc and mutant β-catenin (coupled to GFP) were hydrodynamically delivered into immunocompetent FVB mice along with a vector encoding Sleeping Beauty transposase as described herein.
Hydrodynamic transfection was performed. […] Tumors were evaluated using fluorescence imaging (IVIS imaging system, Xenogen Corp., Hopkinton, Mass.) and immunohistochemistry (H&E). Tumor volume was measured using a caliper.

With `Cc1onc(-c2ccccc2)c1-c1ccc(S(N)(=O)=O)cc1` [Valdecoxib], the “formation of nanoparticles with indocyanine” value in data set [1] is “did not”.
Consider `CNC(=O)c1cc(Oc2ccc(NC(=O)Nc3ccc(Cl)c(C(F)(F)F)c3)cc2)ccn1` [Sorafenib], for which, in data set [2], the “anti-tumor efficacy in liver tumor model” value is listed as “multiple liver tumors”.
For `CC1(C)C(=CC=C2CCCC(C=CC3=[N+](CCCCS(=O)(=O)[O-])c4ccccc4C3(C)C)=C2Cl)N(CCCCS(=O)(=O)[O-])c2ccccc21.[Na+]` [IR783, 2-[2-[2-Chloro-3-[2-[1,3-dihydro-3,3-dimethyl-1-(4-sulfobutyl)-2H-indol-2-ylidene]-ethylidene]-1-cyclohexen-1-yl]-ethenyl]-3,3-dimethyl-1-(4-sulfobutyl)-3H-indolium hydroxide, inner salt sodium salt], the “uptake (internalization) in cell lines” value in data set [3] is given as “does not internalize in the cells”. In data set [4], the “effect on cells after NIR irradiation” value is reported as “no significant effect”. Also, the figures for the “accumulation in liver tumors” value in data set [5] (listed as free indocyanine) and in data set [5] were “did not accumulate in tumors” and “does not accumulate”, respectively.
